# Reference: patent publication US20070244056A1 (priority 2004, published 2007)
# Assays:
# [1] = tested on: human patients afflicted with an unspecified form of multiple sclerosis; conditions: administered alone; data of WO 00/74676; cited from earlier work
# [2] = tested on: Transgenic mice overexpressing human Cu/Zn-SOD G93A mutations; assay: Experimental model for amyotrophic lateral sclerosis (SOD1 G93A transgenic mice); type: in vivo; conditions: glatiramer acetate at both dosages; riluzole 30 mg/kg per day; during the course of treatment
# Description: Transgenic mice overexpressing human Cu/Zn-SOD G93A mutations ((B6SJL-TgN (SOD1-G93A) 1 Gur) and non-transgenic B6/SJL mice are purchased from Jackson Laboratories (Bar Harbor, Me., USA). The second generation of G1H mice are used.
# A group of 15 mice serve as controls.
# The drugs are administered in drinking water starting at 60 days of age.
# The clinical condition of the mice is monitored daily starting at 40 days. The onset of clinical signs is scored by examining the mice for tremors and/or shaking of the limbs, the position of one or both hind limbs (hanging rather than splaying out) when the mice are suspended in the air by their tail. The age of clinical onset was determined by the age (days) at which loss of splay or tremors of hind limbs is observed. The loss of righting reflex determines the end stage of the disease. The mice are sacrificed if they could not right themselves within 30 seconds when placed on either side on a flat surface.
# Mice are observed daily (including weekends) and weighed weekly. Motor performance is assessed from 40 days of age using the rotarod apparatus to measure the night activity of the mice from 8 p.m.-8 a.m.
# Mice were perfused transcardially with 4% paraformaldehyde/0.9% NaCl solution, brains and whole spinal cord were dissected out, frozen in liquid nitrogen and cut in transverse sections of 20 μm on a sliding microtome. […]
# multiple sclerosis (MS) = conditions: daily subcutaneous injections, 20 mg/injection; cited from earlier work
Molecule,EDSS score [1],accumulation of hypointense lesions [1],running wheel activity (motor activity) [2],"appearance of ""black holes"" (multiple sclerosis (MS))",appearance of new lesions by magnetic resonance imaging (MRI) (multiple sclerosis (MS)),progression of disability (multiple sclerosis (MS)),relapse rates (multiple sclerosis (MS))
"Nc1nc2ccc(OC(F)(F)F)cc2s1 [riluzole, 2-amino-6-trifluoromethoxy benzothiazole]",No effect,showed a trend toward reduction,more active during the course of treatment and maintain their motor activity longer than controls,–,–,–,–
"L-glutamic acid polymer with L-alanine, L-lysine and L-tyrosine, acetate (salt) [glatiramer acetate]",–,–,more active during the course of treatment and maintain their motor activity longer than controls,reduce,reduce,reduce,reduce
